{
  "source": "patent US12226410B2",
  "about": "“Methods for enhancing cellular clearance of pathological molecules via activation of the cellular protein ykt6” (NORTHWESTERN UNIVERSITY, priority 2019, dated 2025)",
  "key": {"ykt6": {"tested_on": "ykt6", "assay": "Ykt6 membrane shift analysis (cytosol/membrane fractions) in FTI-treated cultures", "type": "cell-based, human", "settings": "SH-SY5Y wt a-syn cells and A53T iPSn; 5 nM, 5 days", "description": "FIGS. 5A, 5B, 5C, 5D, 5E, 5F, and 5G. Reducing farnesyl-ykt6 enhances SNARE assembly and improves the lysosomal targeting of GCase. 5A) Ykt6 membrane shift analysis of SH-SY5Y cells expressing GFP-ykt6 wt or CS (n=3). 5B) Co-IP of GFP-ykt6 and bet1 in A53T iPSn (n=3). 5C) Ykt6 membrane shift analysis in FTI-treated SH-SY5Y wt a-syn cells or A53T iPSn (5 nM farnesyltransferase inhibitors (FTI) LNK-754 (FTI-1) or LNK-3248 (FTI-2) for 5 days) (n=4). Sec22b was measured to assess specificity. 5D) SEC/western blot of FTI-1 treated SH-SY5Y cells. Quantification is shown below. 5E) Co-IP of GFP-ykt6 wt or mutant ykt6-SS, (cannot be palmitoylated or farnesylated) in FTI-treated SHSY5Y cells (5 nM LNK-754, 5d) (n=2). 5F) Immunofluorescence of GCase and LAMP2A in FTI-treated H4 a-syn cells transfected with scrambled (scrb) or ykt6 shRNA (n=3). Scale bar=10 um. 5G) GCase maturation analysis in FTI-treated A53T iPSn by endo H (n=3). Values are the mean+/−SEM, *p<0.05.\nSeparation of lysates into cytosol and membrane fractions. […] Fractions were then analyzed by western blot analysis as described below. The samples were not analyzed in a blinded manner.\nTreatment of cultures with farnesyltransferase inhibitors. […] Cultures were harvested and analyzed as described in the above sections."}, "human A53T a-syn": {"tested_on": "human A53T a-syn", "assay": "FTI treatment of DASYN53 mice: soluble and insoluble a-syn in midbrain", "type": "in vivo", "settings": "i.p. 0.9 mg/kg, 26d", "source_text": "FIGS. 8A, 8B, 8C, 8D, 8E, and 8F. FTI treatment enhances GCase activity and reduces pathological a-syn in transgenic mice. 8A) GCase activity in the midbrain of FTI (LNK-754)-treated DASYN53 mice (treated as in FIG. 7) (n=4, veh; n=5, FTI). 8B & 8C) Quantification of soluble and insoluble a-syn from midbrains of FTI-treated DASYN53 mice normalized to total protein (CBB). Syn211 is selective for human (hu) a-syn; C20 and syn303 detect mouse (ms) and hu a-syn, (n=3, nTg+Veh; n=4, DASYN53+veh; n=5 DASYN53+FTI). 8D) Midbrain TH levels were quantified by western blot of FTI-treated DASYN53 mice (n=3). 8E) Body weight of FTI-treated DASYN53 mice (n=9, nTg+Veh; n=7, DASYN53+veh; n=7 DASYN53+FTI). 8F) Rotarod test of FTI-treated DASYN53 mice (n=12, nTg+Veh; n=7, DASYN53+veh; n=7 DASYN53+FTI). Values are the mean+/−SEM. *p<0.05, **p<0.01, and *** p<0.001. Student's t-test, panel A; ANOVA with Tukey's posthoc test, panels B-F.\nSequential biochemical extraction for the analysis of pathological a-synuclein. Cells were harvested in phosphate buffered saline (PBS), pH 7.4, and pelleted by centrifugation at 400×g for 5 minutes. […] Protein concentration was measured by BCA assay (Pierce). […]"}},
  "data": [
    {"smiles": "C#Cc1cccc(-c2cc(=O)n(C)c3ccc([C@](O)(c4ccc(Cl)cc4)c4cncn4C)cc23)c1", "note": "[LNK-754]", "values": [
      {"measurement": "membrane association of ykt6", "setting": "ykt6", "value": "increased membrane association of ykt6"},
      {"measurement": "sec22b levels (specificity)", "setting": "ykt6", "value": "did not change"},
      {"measurement": "soluble and insoluble A53T a-syn in midbrain extracts", "setting": "human A53T a-syn", "value": "reduce soluble and insoluble A53T a-syn"}
    ]}
  ]
}
